For 14 molecules, IC50 results are on record in US20210395313A1, “PEPTIDE PAC1 ANTAGONISTS” (AMGEN INC., priority 2017, published 2021).

Where a SMILES comes first, the peptide text is derived from it. Bridges are numbered along the chain shown (N, C = ends). Where no end group is shown, it is not given here. [ ]: non-standard residue; d: D form. Pra = C#CC[C@H](N)C(=O)O Bounds are passed on as bounds.

The target of assay [1] is T1, human PAC1 receptor (Homo sapiens, UniProt P41586).
T1 construct: SHSY-5Y (human neuroblastoma cell line) and RG-2 (rat glioma cell line) cells endogenously express human and rat PAC1 receptors, respectively; endogenous in cells; host or cells: SHSY-5Y human neuroblastoma cells
T1 sequence (P41586 21-468): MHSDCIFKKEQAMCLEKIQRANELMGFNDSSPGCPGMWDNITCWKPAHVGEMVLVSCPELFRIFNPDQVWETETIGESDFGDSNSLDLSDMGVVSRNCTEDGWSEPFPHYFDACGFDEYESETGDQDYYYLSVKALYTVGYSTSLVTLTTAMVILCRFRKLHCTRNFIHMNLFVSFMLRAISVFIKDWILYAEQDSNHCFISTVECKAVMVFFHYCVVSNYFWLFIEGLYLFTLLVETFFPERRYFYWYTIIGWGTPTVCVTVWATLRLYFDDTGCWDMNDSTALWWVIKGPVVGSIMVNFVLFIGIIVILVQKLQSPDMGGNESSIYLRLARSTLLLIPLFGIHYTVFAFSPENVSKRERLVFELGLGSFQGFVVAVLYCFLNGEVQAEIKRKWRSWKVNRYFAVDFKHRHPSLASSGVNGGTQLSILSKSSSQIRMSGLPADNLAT
Put plainly: LANCE Ultra cAMP accumulation antagonist assay in SHSY-5Y cells.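 Also: inhibition of cAMP accumulation evoked by PAC1 agonist at its EC80 in SHSY-5Y cells endogenously expressing receptor, 30 min preincubation then 15 min agonist, TR-FRET readout.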 In kind it is cell-based. In general terms: TR-FRET usually uses a lanthanide donor and a delayed reading to cut background.

Assay [2] deals with T2, rat PAC1 receptor (Rattus norvegicus, UniProt P32215).
T2 construct: SHSY-5Y (human neuroblastoma cell line) and RG-2 (rat glioma cell line) cells endogenously express human and rat PAC1 receptors, respectively; endogenous in cells; host or cells: RG-2 rat glioma cells
T2 sequence (P32215 20-523): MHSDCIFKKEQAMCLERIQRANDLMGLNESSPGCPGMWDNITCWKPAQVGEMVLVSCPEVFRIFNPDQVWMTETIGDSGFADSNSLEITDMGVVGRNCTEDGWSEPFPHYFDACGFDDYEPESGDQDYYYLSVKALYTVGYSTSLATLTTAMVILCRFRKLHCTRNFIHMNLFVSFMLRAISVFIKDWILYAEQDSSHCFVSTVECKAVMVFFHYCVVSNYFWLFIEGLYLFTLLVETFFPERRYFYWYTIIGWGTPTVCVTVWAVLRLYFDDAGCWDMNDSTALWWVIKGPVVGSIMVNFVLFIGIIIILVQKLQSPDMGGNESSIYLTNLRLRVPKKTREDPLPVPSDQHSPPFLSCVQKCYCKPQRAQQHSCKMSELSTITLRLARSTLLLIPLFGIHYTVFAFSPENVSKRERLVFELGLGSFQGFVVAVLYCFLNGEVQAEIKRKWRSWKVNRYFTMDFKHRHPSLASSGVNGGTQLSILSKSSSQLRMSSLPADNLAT
Kind of assay: LANCE Ultra cAMP accumulation antagonist assay in RG-2 cells.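 Also: RG-2 rat glioma cells endogenously expressing PAC1, test peptide preincubated 30 min, then PAC1 agonist added at its EC80 for 15 min, cAMP accumulation read by LANCE Ultra.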 It counts as cell-based.
Description: In order to determine the potency of peptide antagonists at the PAC1 receptor, functional cAMP accumulation assays using LANCE Ultra cAMP assay kit to measure the agonist and antagonist activity of PAC1 peptides were used. SHSY-5Y (human neuroblastoma cell line) and RG-2 (rat glioma cell line) cells endogenously express human and rat PAC1 receptors, respectively. Agonist activity of PAC1 peptides was tested by incubating with SHSY-5Y at 2,000 cells per well or RG-2 at 5,000 cells per well for 15 minutes at room temperature. PAC1 receptor agonist PACAP38 or maxadilan was included as a positive control. The reaction was stopped by adding detection mixture, europium (Eu) chelate-labeled cAMP tracer and cAMP-specific monoclonal antibodies labeled with the ULight™ dye, to all wells followed by a 60-minute incubation at room temperature. The assay plates were then read on an EnVision instrument at an emission wavelength of 665 and 615 nm and data were analyzed using Genedata Screener or GraphPad Prism software. A similar procedure was used in the antagonist assays by using a fixed concentration of PAC1 agonist. The concentrations of agonists were chosen based on their ECK) values at PAC1 receptors in SHSY-5Y or RG-2 cells. SHSY-5Y or RG-2 cells were added into 96-well half-area white plates. Serially diluted PAC1 peptides at ten concentrations were added and incubated for 30 minutes at room temperature. PAC1 agonist at EC80 concentration was then added and further incubated for 15 minutes at room temperature. The reaction was stopped by adding detection mixture to all wells followed by a 60-minute incubation at room temperature. The assay plates were read and analyzed the same way as that of agonist assay. Cells, agonists, and PAC1 peptides were prepared in freshly made assay buffer (F-12, 0.5 mM IBMX, 0.1 or 0.4% BSA (pH 7.4)). Detection mixture was made by mixing a 1/50 dilution of the Eu-cAMP tracer stock solution in cAMP Detection Buffer and a 1/150 dilution of the ULight-anti-cAMP stock solution in cAMP Detection Buffer. Europium (Eu) chelate-labeled cAMP tracer, cAMP-specific monoclonal antibodies labeled with the ULight™ dye, BSA, and detection buffer were provided in LANCE Ultra cAMP Kit from PerkinElmer

A word on the IC50: it is the point on the concentration scale where inhibition reaches its midpoint. Lower therefore signals higher potency. For the molecule `CC[C@H](C)[C@H](NC(=O)[C@H](C)NC(=O)[C@H](CCCCN)NC(=O)[C@H](CCCNC(=N)N)NC(=O)[C@H](Cc1ccccc1)NC(=O)[C@H](CCC(N)=O)NC(=O)[C@@H]1CSSC[C@H](N)C(=O)N[C@@H](CC(=O)O)C(=O)N[C@@H](C)C(=O)N[C@@H]([C@@H](C)O)C(=O)N1)C(=O)N[C@@H](CC(=O)O)C(=O)N[C@@H](CC(=O)O)C(=O)N[C@H]1CSSC[C@@H](C(=O)N[C@@H](CCSC)C(=O)N[C@@H](CCCCN)C(=O)N[C@@H](CCC(N)=O)C(=O)N[C@@H](CCCCN)C(=O)N[C@@H](CCCCN)C(=O)N[C@@H](CCCCN)C(=O)N[C@@H](CCC(=O)O)C(=O)N[C@@H](Cc2ccccc2)C(=O)N[C@@H](CCCCN)C(=O)N[C@@H](C)C(=O)NCC(=O)N[C@@H](Cc2ccc(O)cc2)C(=O)O)NC(=O)[C@H](C)NC(=O)[C@H](CCCCN)NC(=O)[C@H](Cc2ccccc2)NC(=O)[C@H](C(C)C)NC(=O)[C@H](CO)NC(=O)[C@H](CO)NC(=O)[C@H](Cc2c[nH]cn2)NC(=O)[C@H](Cc2c[nH]cn2)NC(=O)[C@H](C)NC(=O)[C@H](CCC(N)=O)NC(=O)[C@H](CCCCN)NC(=O)[C@H](C)NC1=O` [compound 29] (H-CDATCQFRKAIDDCAKQAHHSSVFKACMKQKKKEFKAGY-OH; disulfide 1-5, 14-27), the IC50 in assay [1] and in assay [2] was 0.01 to 1 nM throughout.
Take `CC[C@H](C)[C@H](NC(=O)[C@H](C)NC(=O)[C@H](CCCCN)NC(=O)[C@H](CCCNC(=N)N)NC(=O)[C@H](Cc1ccccc1)NC(=O)[C@H](CCC(N)=O)NC(=O)[C@@H]1CSSC[C@H](N)C(=O)N[C@@H](CC(=O)O)C(=O)N[C@@H](C)C(=O)N[C@@H]([C@@H](C)O)C(=O)N1)C(=O)N[C@@H](CC(=O)O)C(=O)N[C@@H](CC(=O)O)C(=O)N[C@H]1CSSC[C@@H](C(=O)N[C@@H](CCSC)C(=O)N[C@@H](CCCCN)C(=O)N[C@@H](CCC(N)=O)C(=O)N[C@@H](CCCCN)C(=O)N[C@@H](CCCCN)C(=O)N[C@@H](CCCCN)C(=O)N[C@@H](CCC(=O)O)C(=O)N[C@@H](Cc2c[nH]c3ccccc23)C(=O)N[C@@H](CCCCN)C(=O)N[C@@H](C)C(=O)NCC(=O)N[C@@H](Cc2c[nH]cn2)C(=O)O)NC(=O)[C@H](C)NC(=O)[C@H](CCCCN)NC(=O)[C@H](Cc2ccccc2)NC(=O)[C@H](C(C)C)NC(=O)[C@H](CO)NC(=O)[C@H](CO)NC(=O)[C@H](Cc2c[nH]cn2)NC(=O)[C@H](Cc2c[nH]c3ccccc23)NC(=O)[C@H](CO)NC(=O)[C@H](CCCNC(=N)N)NC(=O)[C@H](Cc2ccc(O)cc2)NC(=O)[C@H](Cc2ccc(O)cc2)NC1=O` [compound 72] (H-CDATCQFRKAIDDCYYRSWHSSVFKACMKQKKKEWKAGH-OH; disulfide 1-5, 14-27): the IC50 in assay [1] and in assay [2] was 0.01 to 1 nM each time.
On to “CDATCQFRKAIDDCARQAHHANVPGSVFKACMKQKKKEWKAGH (disulfide 1-5, 14-31) [compound 8]”, for which the IC50 in assay [1] and in assay [2] was 0.01 to 1 nM each time.
Take `CC[C@H](C)[C@H](NC(=O)[C@H](C)NC(=O)[C@H](CCCCN)NC(=O)[C@H](CCCNC(=N)N)NC(=O)[C@H](Cc1ccccc1)NC(=O)[C@H](CCC(N)=O)NC(=O)[C@@H]1CSSC[C@H](N)C(=O)N[C@@H](CC(=O)O)C(=O)N[C@@H](C)C(=O)N[C@@H]([C@@H](C)O)C(=O)N1)C(=O)N[C@@H](CC(=O)O)C(=O)N[C@@H](CC(=O)O)C(=O)N[C@H]1CSSC[C@@H](C(=O)N[C@@H](CCSC)C(=O)N[C@@H](CCCCN)C(=O)N[C@@H](CCC(N)=O)C(=O)N[C@@H](CCCCN)C(=O)N[C@@H](CCCCN)C(=O)N[C@@H](CCCCN)C(=O)N[C@@H](CCC(=O)O)C(=O)N[C@@H](Cc2ccccc2)C(=O)N[C@@H](CCCCN)C(N)=O)NC(=O)[C@H](CCC(=O)O)NC(=O)[C@H](CCCCN)NC(=O)[C@H](Cc2ccccc2)NC(=O)[C@H](C(C)C)NC(=O)[C@H](CO)NC(=O)[C@H](CO)NC(=O)[C@H](Cc2c[nH]cn2)NC(=O)[C@H](Cc2c[nH]cn2)NC(=O)[C@H](C)NC(=O)[C@H](CCC(N)=O)NC(=O)[C@H](CCCCN)NC(=O)[C@H](CCC(N)=O)NC1=O` [compound 225] (H-CDATCQFRKAIDDCQKQAHHSSVFKECMKQKKKEFK-NH2; disulfide 1-5, 14-27): the IC50 lay in the range of 0.01 to 1 nM in assay [1] and 1 to 100 nM in assay [2].
In the case of “CDATCQFRKAIDDCVRQAYHSNVPGSVFKACMKQKKKEWKAGH (disulfide 1-5, 14-31) [compound 84]”, the half-inhibitory concentration (IC50) in assay [1] and in assay [2] was 0.01 to 1 nM throughout.
Regarding “CDATCQFRKAIDDCQKQAHHSNVPGSVFKACMKFRFNVWKAG-NH2 (disulfide 1-5, 14-31) [compound 127]”, the IC50 in assay [1] and in assay [2] was 0.01 to 1 nM in each case.
For the molecule “CDATCQFRKAIDDCQ[Pra]QAHHSNVPGSVFKACMKQKKKEFKAG-NH2 (disulfide 1-5, 14-31) [compound 33]”, the IC50 in assay [1] was 1 to 100 nM; in assay [2], 0.01 to 1 nM.
In the case of `CC[C@H](C)[C@H](NC(=O)[C@H](C)NC(=O)[C@H](CCCCN)NC(=O)[C@H](CCCNC(=N)N)NC(=O)[C@H](Cc1ccccc1)NC(=O)[C@H](CCC(N)=O)NC(=O)[C@@H]1CSSC[C@H](NC(C)=O)C(=O)N[C@@H](CC(=O)O)C(=O)N[C@@H](C)C(=O)N[C@@H]([C@@H](C)O)C(=O)N1)C(=O)N[C@@H](CC(=O)O)C(=O)N[C@@H](CC(=O)O)C(=O)N[C@H]1CSSC[C@@H](C(=O)N[C@@H](CCSC)C(=O)N[C@@H](CCCCN)C(=O)N[C@@H](CCC(N)=O)C(=O)N[C@@H](CCCCN)C(=O)N[C@@H](CCCCN)C(=O)N[C@@H](CCCCN)C(=O)N[C@@H](CCC(=O)O)C(=O)N[C@@H](Cc2ccccc2)C(=O)N[C@@H](CCCCN)C(=O)N[C@@H](C)C(N)=O)NC(=O)C(C)(C)NC(=O)[C@H](CCCCN)NC(=O)[C@H](Cc2ccccc2)NC(=O)[C@H](C(C)C)NC(=O)[C@H](CO)NC(=O)CNC(=O)[C@@H]2CCCN2C(=O)[C@H](C(C)C)NC(=O)[C@H](CC(N)=O)NC(=O)[C@H](CO)NC(=O)[C@H](Cc2c[nH]cn2)NC(=O)[C@H](Cc2c[nH]cn2)NC(=O)[C@H](C)NC(=O)[C@H](CCC(N)=O)NC(=O)[C@H](CCCCN)NC(=O)[C@H](CCC(N)=O)NC1=O` [SEQ ID NO 249], the IC50 in assay [1] lay within 1 to 100 nM; in assay [2] it was 0.01 to 1 nM.
For the molecule “GCDATCQFRKAIDDCAKQAHHSNVPGSVFKACMKQKKKEFKAGH (disulfide 2-6, 15-32) [compound 59]”, the IC50 in assay [1] and in assay [2] was 0.01 to 1 nM in each case.
Regarding `CC[C@H](C)[C@H](NC(=O)[C@H](C)NC(=O)[C@H](CCCCN)NC(=O)[C@H](CCCNC(=N)N)NC(=O)[C@H](Cc1ccccc1)NC(=O)[C@H](CCC(N)=O)NC(=O)[C@@H]1CSSC[C@H](N)C(=O)N[C@@H](CC(=O)O)C(=O)N[C@@H](C)C(=O)N[C@@H]([C@@H](C)O)C(=O)N1)C(=O)N[C@@H](CC(=O)O)C(=O)N[C@@H](CC(=O)O)C(=O)N[C@H]1CSSC[C@@H](C(=O)N[C@@H](CCSC)C(=O)N[C@@H](CCCCN)C(=O)N[C@@H](CCC(N)=O)C(=O)N[C@@H](CCCCN)C(=O)N[C@@H](CCCCN)C(=O)N[C@@H](CCCCN)C(=O)N[C@@H](CCC(=O)O)C(=O)N[C@@H](Cc2c[nH]c3ccccc23)C(=O)N[C@@H](CCCCN)C(=O)N[C@@H](C)C(=O)NCC(=O)N[C@@H](Cc2c[nH]cn2)C(=O)O)NC(=O)[C@H](C)NC(=O)[C@H](CCCCN)NC(=O)[C@H](Cc2ccccc2)NC(=O)[C@H](C(C)C)NC(=O)[C@H](CO)NC(=O)[C@H](CO)NC(=O)[C@H](Cc2c[nH]cn2)NC(=O)[C@H](Cc2ccc(O)cc2)NC(=O)[C@H](C)NC(=O)[C@H](CCC(N)=O)NC(=O)[C@H](CCCNC(=N)N)NC(=O)[C@H](C)NC1=O` [compound 27] (H-CDATCQFRKAIDDCARQAYHSSVFKACMKQKKKEWKAGH-OH; disulfide 1-5, 14-27), the IC50 in assay [1] and in assay [2] was 0.01 to 1 nM throughout.
Turning to “CDATCQFRKAIDDCQKQAHHSNVPGSVFKACMKQKKKEFKAW (disulfide 1-5, 14-31) [compound 95]”, the IC50 in assay [1] and in assay [2] was 1 to 100 nM each time.
For the molecule “CDATCQFRKAIDDCAGRASHANVPGSVFKACMKQKKKEWKAGH-NH2 (disulfide 1-5, 14-31) [compound 425]”, the IC50 in assay [1] and in assay [2] was 0.01 to 1 nM throughout.
“CDATCQFRKAIDDCMLFSWHSNVPGSVFKACMKQKKKEFKAG-NH2 (disulfide 1-5, 14-31) [compound 131]”: the concentration for half-maximal inhibition (IC50) in assay [1] and in assay [2] was 0.01 to 1 nM throughout.
“CDATCQFRKAIDDCYYRSKHSNVPGSVFKACMKQKKKEFKAG-NH2 (disulfide 1-5, 14-31) [compound 43]”: the IC50 in assay [1] was 0.01 to 1 nM; in assay [2] it was under 0.01 nM.
